Measurements from patent US10071077B2, “Use of enoximone in the treatment of atopic immune-related disorders, in pharmaceutical composition as well as in pharmaceutical preparation” (BREAKTHROUGH MEDICAL RESEARCH B.V., priority 2014, dated 2018).

Columns and labels:
patients with asthma = assay: Trials 1-3: treatment of asthma patients with enoximone; format: in vivo, human
Method: A patient was to be operated in connection with a mammary carcinoma. They had known difficult-to-treat asthma and before the operation they received 30 mg prednisone per day as extra medication in addition to their beta-2 agonists and parasympatholytics treatment, but their breathing remained considerably obstructed. Ten minutes before the start of the anaesthesia they were given 25 mg enoximone intravenously. […] Ultimately, after a single administration of enoximone, they stayed symptom-free for two months. Based on the above experience, a second patient was treated. According to their lung specialist, they suffered from untreatable asthma and had been completely bed-ridden for a long time, among other reasons due to high doses of the traditional medication (next to some other drugs they received 50 mg prednisone per day). Inhalation therapy worked for a few minutes only due to the severe bronchoconstriction, the drying of the airways and the consequential sticky obstructive mucus. The patient received 20 mg enoximone orally in two doses of 10 mg at a 15 minutes interval. […] They remained symptom-free for 7 days. During the first day after the first administration, the patient coughed a lot, which loosened the sticky mucus. After 7 days, they received another 10 mg dose of enoximone orally, after which they again remained symptom-free for 7 days. They were ultimately able to drastically reduce their prednisone use to 5 mg per day (complete phasing out was not possible in connection with their Mixed Connected Tissue Disease). They were able to build up their condition relatively quickly with a maintenance dose of 10 mg of enoximone once every 4 days. After 3 months, they were able to perform their normal household activities again and go back to work. After another month, they were even able to do some sport with caution. Following trials 1 and 2, several patients with light to severe asthma symptoms, who up to that time had been treated exclusively with the traditional therapy with little or no results, were also treated with enoximone. […] Their individual dosage depended on the severity of the disorder. The dosage ranged from 0.1 to 0.3 mg/kg body weight, mostly in a maintenance dosage of twice a week, based on the time of recurrence of the symptoms.

[1] = tested on: Human basophils stimulated with anti IgE; assay: Basophil degranulation assay; format: cell-based; details: anti IgE stimulation
Method: PBMCs including basophils were treated with diluent or several doses of enoximone at 37° C. for half an hour. Next the cells were washed and incubated with anti IgE antibodies 5 µg/ml for 20 minutes at 37° C. for 20 minutes washed again at 4° C. and consequently stained for flowcytometric with CD123-BV650, CD203c-PE, CD107a-FITC, HLA-DR-PerCPCy5.5 and FcεRI-APC at 4° C. for 30 minutes. Cells were acquire with a LSRII and analyzed with Flowjo X. Basophils were identified as FcεRI+, CD123+ and HLA-DR− cells. Degranulated and/or activated basophils stained positive for CD203c and CD107a. 100% degranulated basophils were set as the % of degranulated basophils treated with diluent and stimulated with 5 µg/ml anti IgE. Proportion of inhibition was calculated as % of degranulated basophils divided by the maximal % of diluent treated degranulated basophils.
FIG. 4 Human PBMCs including basophils were treated with diluent or several doses of enoximone and cells were activated by incubation with anti IgE antibodies. Data plotted show the mean proportion of inhibition was calculated as % degranulated basophils (CD123^+FceRI^+HLA-DR^− CD107a^+CD203c^+ cells) pretreated with enoximone divided by % of diluent treated degranulated basophils (n=3).

CSc1ccc(C(=O)c2[nH]c(=O)[nH]c2C)cc1 [enoximone, 1,3-dihydro-4-methyl-5-[4-(methylthio)benzoyl]-2H-imidazol-2-on]
symptom-free period (patients with asthma; Trial 1: after a single administration of 25 mg intravenously): two months | time to disappearance of asthma symptoms (patients with asthma; Trial 1: person, difficult-to-treat asthma, 25 mg intravenously): within a few minutes | symptom-free period (patients with asthma; Trial 2: after 20 mg orally in two doses of 10 mg at a 15 minutes interval): 7 days | symptom-free period (patients with asthma; Trial 2: after another 10 mg dose orally after 7 days): 7 days | time until able to perform normal household activities and go back to work (patients with asthma; Trial 2: maintenance dose of 10 mg once every 4 days): 3 months | prednisone use after reduction (patients with asthma; Trial 2: previously 50 mg prednisone per day): 5 mg per day | time to disappearance of asthma symptoms (patients with asthma; Trial 2: untreatable asthma, after first oral dose of 10 mg): within two minutes | progress of patients with light to severe asthma symptoms (patients with asthma; Trial 3: 0.1 to 0.3 mg/kg body weight, mostly twice a week): remarkable and fast progress | allergic and immune-related symptoms (patients with asthma; Trial 3: five patients): substantially milder or even disappeared altogether | time to improved breathing (patients with asthma; administered orally in cases of asthma): within ten minutes | time to reaction (patients with asthma; all the patients treated): within a few minutes | symptom-free period (patients with asthma; all the patients treated, after only one dose): remained days or weeks symptom-free | duration of improvement of the dyspnoea symptoms (patients with asthma; as maintenance medication): from a few days to several weeks or several months | duration of the effects of the compound (patients with asthma; compared with the half life of 4 hours): lasting well beyond a month | side effects (patients with asthma; disappeared after one day, lowering the dose offered a solution): two patients reported headaches on the day of intake | time to improved breathing (patients with asthma; intravenous administration in cases of asthma): within as little as one minute | inhibition at 20 µM ([1]; Homo sapiens, 20 μM enoximone, FIG. 4, read-out: inhibition of basophil activation/degranulation (CD107a and CD203c positivity)): > 50% | inhibition at 1000 µM ([1]; Homo sapiens, 1000 μM enoximone, FIG. 4, read-out: inhibition of basophil activation/degranulation (CD107a and CD203c positivity)): > 90% | basophil activation (CD107a and CD203c positivity) ([1]; enoximone 20-1000 μM): reduced basophil activation
